Reference: the NIST ThermoML archive (doi:10.1021/je100967k)

Columns and labels:
[1] = xn = mol fraction of the nth substance listed; details: 101 kPa, Liquid; for speed of sound: Pulse-echo method
[2] = refractive index (Na D-line) (dimensionless); xn = mol fraction of the nth substance listed; details: 101 kPa, Liquid, Standard Abbe refractometry

CN1CCCC1=O [N-methylpyrrolidone] + CCO
Details | mass density, [1] [kg/m3] | refractive index, [2] | speed of sound, [1] [m/s] | viscosity, [1] [mPa·s]
293.15 K, x1 = 0.0992 | 829.76 | 1.3797 | 1226.1 | 1.139
293.15 K, x1 = 0.1985 | 864.84 | 1.3953 | 1284.2 | 1.173
293.15 K, x1 = 0.2973 | 894.36 | 1.4089 | 1331.7 | 1.218
293.15 K, x1 = 0.3963 | 920.89 | 1.4209 | 1375.7 | 1.275
293.15 K, x1 = 0.4948 | 944.41 | 1.4313 | 1414.8 | 1.354
293.15 K, x1 = 0.5932 | 965 | 1.4406 | 1448.9 | 1.436
293.15 K, x1 = 0.6912 | 983.96 | 1.449 | 1480.7 | 1.524
293.15 K, x1 = 0.7897 | 1000.86 | 1.4563 | 1509.4 | 1.626
293.15 K, x1 = 0.8875 | 1016.79 | 1.4633 | 1537 | 1.726
293.15 K, x1 = 1 | 1032.87 | 1.4706 | 1565.3 | 1.858
303.15 K, x1 = 0.0992 | 820.98 | 1.376 | 1191.3 | 0.9625
303.15 K, x1 = 0.1985 | 855.96 | 1.3916 | 1248.9 | 0.986
303.15 K, x1 = 0.2973 | 885.42 | 1.4051 | 1295.9 | 1.033
303.15 K, x1 = 0.3963 | 911.91 | 1.4168 | 1338.9 | 1.09
303.15 K, x1 = 0.4948 | 935.43 | 1.4273 | 1377.6 | 1.15
303.15 K, x1 = 0.5932 | 955.97 | 1.4366 | 1411.4 | 1.22
303.15 K, x1 = 0.6912 | 974.94 | 1.4449 | 1442.9 | 1.292
303.15 K, x1 = 0.7897 | 991.85 | 1.4523 | 1471.4 | 1.371
303.15 K, x1 = 0.8875 | 1007.8 | 1.4593 | 1498.5 | 1.45
303.15 K, x1 = 1 | 1023.95 | 1.4664 | 1526.5 | 1.553
313.15 K, x1 = 0.0992 | 812.09 | 1.3717 | 1157 | 0.803
313.15 K, x1 = 0.1985 | 846.98 | 1.3872 | 1214.7 | 0.8276
313.15 K, x1 = 0.2973 | 876.39 | 1.4011 | 1260.3 | 0.867
313.15 K, x1 = 0.3963 | 902.87 | 1.4127 | 1302.5 | 0.9234
313.15 K, x1 = 0.4948 | 926.39 | 1.4234 | 1341 | 0.98
313.15 K, x1 = 0.5932 | 946.9 | 1.4329 | 1374.2 | 1.039
313.15 K, x1 = 0.6912 | 965.89 | 1.4411 | 1405.3 | 1.109
313.15 K, x1 = 0.7897 | 982.82 | 1.4484 | 1433.5 | 1.173
313.15 K, x1 = 0.8875 | 998.8 | 1.4552 | 1460.3 | 1.237
313.15 K, x1 = 1 | 1015.03 | 1.4621 | 1487.8 | 1.324
323.15 K, x1 = 0.0992 | 803.05 | 1.3677 | 1122.7 | 0.657
323.15 K, x1 = 0.1985 | 837.87 | 1.3837 | 1179.6 | 0.691
323.15 K, x1 = 0.2973 | 867.27 | 1.3974 | 1224.9 | 0.731
323.15 K, x1 = 0.3963 | 893.76 | 1.4089 | 1266.6 | 0.782
323.15 K, x1 = 0.4948 | 917.3 | 1.4195 | 1304.6 | 0.833
323.15 K, x1 = 0.5932 | 937.79 | 1.4289 | 1337.3 | 0.895
323.15 K, x1 = 0.6912 | 956.8 | 1.4372 | 1368.3 | 0.952
323.15 K, x1 = 0.7897 | 973.77 | 1.4443 | 1396.1 | 1.011
323.15 K, x1 = 0.8875 | 989.78 | 1.4512 | 1422.8 | 1.071
323.15 K, x1 = 1 | 1006.1 | 1.4576 | 1450.2 | 1.146

CN1CCCC1=O [N-methylpyrrolidone] + O
Details | mass density, [1] [kg/m3] | refractive index, [2] | speed of sound, [1] [m/s] | viscosity, [1] [mPa·s]
293.15 K, x1 = 0.1 | 1030.11 | 1.3907 | 1713.9 | 3.332
293.15 K, x1 = 0.2 | 1047.15 | 1.4221 | 1766.5 | 5.903
293.15 K, x1 = 0.3001 | 1052.4 | 1.4402 | 1751.6 | 6.774
293.15 K, x1 = 0.3994 | 1051.69 | 1.4507 | 1718.4 | 5.724
293.15 K, x1 = 0.4997 | 1048.9 | 1.4573 | 1683.7 | 4.469
293.15 K, x1 = 0.6001 | 1045.08 | 1.4618 | 1651.6 | 3.566
293.15 K, x1 = 0.6997 | 1041.48 | 1.4648 | 1623.8 | 2.865
293.15 K, x1 = 0.7982 | 1038.44 | 1.4673 | 1601.2 | 2.394
293.15 K, x1 = 0.899 | 1035.42 | 1.469 | 1581 | 2.041
293.15 K, x1 = 1 | 1032.87 | 1.4706 | 1565.3 | 1.858
303.15 K, x1 = 0.1 | 1023.58 | 1.3882 | 1694.6 | 2.372
303.15 K, x1 = 0.2 | 1038.47 | 1.4187 | 1732 | 3.958
303.15 K, x1 = 0.3001 | 1043.03 | 1.4363 | 1713 | 4.365
303.15 K, x1 = 0.3994 | 1042.22 | 1.4467 | 1679.1 | 3.959
303.15 K, x1 = 0.4997 | 1039.51 | 1.4533 | 1644.5 | 3.318
303.15 K, x1 = 0.6001 | 1035.8 | 1.4576 | 1612.7 | 2.71
303.15 K, x1 = 0.6997 | 1032.32 | 1.4608 | 1585.3 | 2.279
303.15 K, x1 = 0.7982 | 1029.36 | 1.4628 | 1562.6 | 1.969
303.15 K, x1 = 0.899 | 1026.41 | 1.4649 | 1542.6 | 1.705
303.15 K, x1 = 1 | 1023.95 | 1.4664 | 1526.5 | 1.553
313.15 K, x1 = 0.1 | 1016.67 | 1.3863 | 1674 | 1.75
313.15 K, x1 = 0.2 | 1029.62 | 1.4165 | 1697 | 2.749
313.15 K, x1 = 0.3001 | 1033.55 | 1.4331 | 1674.3 | 3.01
313.15 K, x1 = 0.3994 | 1032.64 | 1.4425 | 1639.3 | 2.89
313.15 K, x1 = 0.4997 | 1030.02 | 1.4492 | 1604.6 | 2.51
313.15 K, x1 = 0.6001 | 1026.44 | 1.4534 | 1573.2 | 2.153
313.15 K, x1 = 0.6997 | 1023.08 | 1.4565 | 1546.8 | 1.834
313.15 K, x1 = 0.7982 | 1020.23 | 1.4584 | 1523.9 | 1.641
313.15 K, x1 = 0.899 | 1017.37 | 1.4604 | 1504.1 | 1.46
313.15 K, x1 = 1 | 1015.03 | 1.4621 | 1487.8 | 1.324
323.15 K, x1 = 0.1 | 1009.4 | 1.384 | 1651.4 | 1.348
323.15 K, x1 = 0.2 | 1020.59 | 1.4114 | 1661.6 | 2.065
323.15 K, x1 = 0.3001 | 1023.92 | 1.4283 | 1634.9 | 2.215
323.15 K, x1 = 0.3994 | 1022.94 | 1.4387 | 1599.4 | 2.161
323.15 K, x1 = 0.4997 | 1020.43 | 1.445 | 1565.5 | 1.959
323.15 K, x1 = 0.6001 | 1016.99 | 1.4495 | 1534.1 | 1.706
323.15 K, x1 = 0.6997 | 1013.78 | 1.4524 | 1507.6 | 1.485
323.15 K, x1 = 0.7982 | 1011.06 | 1.4546 | 1485.4 | 1.361
323.15 K, x1 = 0.899 | 1008.3 | 1.4564 | 1466 | 1.242
323.15 K, x1 = 1 | 1006.1 | 1.4576 | 1450.2 | 1.146
